These results are taken from patent US20230219962A1, “PYRAZOLO[4,3-d]PYRIMIDINE DERIVATIVES AND METHODS OF USE THEREOF FOR THE TREATMENT OF CELLULAR PROLIFERATIVE DISORDERS” (Merck Sharp & Dohme LLC, priority 2020, published 2023).

One test addresses T1, hTLR7 (Homo sapiens, UniProt Q9NYK1).
T1 construct: host or cells: HEK-Blue hTLR7 cells (HEK293-derived, own knowledge)
T1 sequence (Q9NYK1 27-1049): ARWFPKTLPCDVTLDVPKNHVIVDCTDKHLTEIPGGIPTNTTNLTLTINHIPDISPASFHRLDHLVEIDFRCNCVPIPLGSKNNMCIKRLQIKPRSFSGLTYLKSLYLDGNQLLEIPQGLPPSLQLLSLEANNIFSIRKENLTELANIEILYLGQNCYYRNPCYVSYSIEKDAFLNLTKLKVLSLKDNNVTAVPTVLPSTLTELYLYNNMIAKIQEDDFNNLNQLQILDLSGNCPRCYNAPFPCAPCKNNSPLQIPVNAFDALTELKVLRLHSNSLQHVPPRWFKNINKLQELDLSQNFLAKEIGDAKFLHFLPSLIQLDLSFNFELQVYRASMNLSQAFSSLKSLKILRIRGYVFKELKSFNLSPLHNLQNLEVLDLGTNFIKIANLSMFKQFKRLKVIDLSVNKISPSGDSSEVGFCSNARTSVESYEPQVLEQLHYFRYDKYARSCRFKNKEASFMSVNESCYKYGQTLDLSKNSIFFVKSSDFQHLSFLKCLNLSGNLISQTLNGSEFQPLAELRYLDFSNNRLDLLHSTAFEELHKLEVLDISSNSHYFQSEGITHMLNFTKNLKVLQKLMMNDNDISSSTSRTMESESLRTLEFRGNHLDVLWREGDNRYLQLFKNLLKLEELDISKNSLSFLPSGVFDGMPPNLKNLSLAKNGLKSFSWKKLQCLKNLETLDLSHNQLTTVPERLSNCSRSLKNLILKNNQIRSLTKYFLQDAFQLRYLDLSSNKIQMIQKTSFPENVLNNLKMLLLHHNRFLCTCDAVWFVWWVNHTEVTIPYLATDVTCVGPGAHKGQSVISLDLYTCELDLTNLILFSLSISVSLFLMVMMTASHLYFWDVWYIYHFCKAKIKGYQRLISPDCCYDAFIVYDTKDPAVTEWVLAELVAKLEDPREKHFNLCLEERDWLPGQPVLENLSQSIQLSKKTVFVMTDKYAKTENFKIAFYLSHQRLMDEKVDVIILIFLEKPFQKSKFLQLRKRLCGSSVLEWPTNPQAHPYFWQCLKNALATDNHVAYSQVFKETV
Briefly: Human TLR7 Reporter Assay. The class given is cell-based. The conditions noted are these: HEK-Blue hTLR7 cells, 16 hours, normalized to CL097 (6 μM) and DMSO. The method, boiled down:
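HEK-Blue hTLR7 reporter cells (20,000/well) incubated 16 h at 37 °C with 10-point 3-fold compound dilutions; SEAP read by absorbance at 620 nm. Effects normalized between CL097 (6 μM) and DMSO controls; EC50 from 4-parameter fit.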
For orientation: Reporter assays use an easily measured gene product as a stand-in for the process of interest.

A further test concerns the target T2, hTLR8 (Homo sapiens, UniProt Q9NR97).
T2 construct: host or cells: HEK-Blue hTLR8 cells (HEK293-derived, own knowledge)
T2 sequence (Q9NR97 27-1041): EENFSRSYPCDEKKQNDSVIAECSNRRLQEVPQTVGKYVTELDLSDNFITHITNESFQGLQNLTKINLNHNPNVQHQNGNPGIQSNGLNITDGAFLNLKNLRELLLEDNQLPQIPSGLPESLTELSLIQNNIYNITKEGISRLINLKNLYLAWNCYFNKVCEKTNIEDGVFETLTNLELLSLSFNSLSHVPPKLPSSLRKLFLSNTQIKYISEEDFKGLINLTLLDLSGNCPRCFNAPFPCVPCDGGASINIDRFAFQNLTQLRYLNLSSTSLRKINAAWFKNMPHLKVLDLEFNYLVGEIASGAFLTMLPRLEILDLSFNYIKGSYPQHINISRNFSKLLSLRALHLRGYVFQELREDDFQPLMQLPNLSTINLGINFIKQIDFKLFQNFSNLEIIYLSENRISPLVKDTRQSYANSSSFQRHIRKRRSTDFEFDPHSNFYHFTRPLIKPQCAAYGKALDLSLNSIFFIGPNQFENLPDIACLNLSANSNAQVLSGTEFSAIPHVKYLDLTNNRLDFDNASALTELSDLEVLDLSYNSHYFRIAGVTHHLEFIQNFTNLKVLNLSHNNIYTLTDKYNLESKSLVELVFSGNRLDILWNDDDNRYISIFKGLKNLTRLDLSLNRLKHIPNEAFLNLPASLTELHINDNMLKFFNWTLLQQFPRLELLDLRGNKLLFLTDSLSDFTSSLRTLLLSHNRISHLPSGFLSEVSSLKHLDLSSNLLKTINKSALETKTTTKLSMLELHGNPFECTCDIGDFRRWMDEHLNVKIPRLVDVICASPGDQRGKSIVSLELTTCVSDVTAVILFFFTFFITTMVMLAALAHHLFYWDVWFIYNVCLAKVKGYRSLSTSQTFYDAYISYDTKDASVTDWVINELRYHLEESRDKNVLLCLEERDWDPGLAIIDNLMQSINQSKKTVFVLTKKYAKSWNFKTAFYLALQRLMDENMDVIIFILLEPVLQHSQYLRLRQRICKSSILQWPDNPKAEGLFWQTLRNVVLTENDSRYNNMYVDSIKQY
The test can be described thus: Human TLR8 Reporter Assay. The conditions noted are these: HEK-Blue hTLR8 cells, 16 hours, normalized to tl8-506 (1 μM) and DMSO. The class given is cell-based. The method, boiled down:
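HEK-Blue hTLR8 cells (20,000/well) incubated 16 h at 37 °C with 10-point 3-fold compound dilutions in HEK-Blue Detection medium; reporter read as absorbance at 620 nm. Effects normalized between DMSO and tl8-506 (1 μM); EC50 from 4-parameter fit.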

A word on the EC50: it is the concentration that produces a half-maximal response. The low end stands for higher potency in that assay, the high end for lower potency in that assay. In the case of `CCCCNc1nc(N)nc2cn(Cc3ccc(CN4CCNCC4)cc3)nc12` [Compound 112], the EC50 at hTLR7 was found to be 1.57 µM; at hTLR8, 19.9 µM.

With `CCC[C@@H](C)Nc1nc(N)nc2cn(Cc3c(OC)cccc3OC)nc12` [Compound 113], the results for the half-maximal effective concentration (EC50) at hTLR7 and at hTLR8 were 0.019 µM and 0.206 µM, respectively.

`CCCCNc1nc(N)nc2cn(Cc3c(OC)cc(NCCN)cc3OC)nc12` [Compound 114]: the concentration giving a half-maximal response (EC50) at hTLR7 is 0.529 µM; at hTLR8 it was 4.49 µM.

Turning to `CCCCNc1nc(N)nc2cn(Cc3ccc(N4CCN(C(=O)[C@H]5CC[C@H](CN)CC5)CC4)cc3OC)nc12` [Compound 115], the EC50 at hTLR7 is 0.329 µM; at hTLR8 it was 5.59 µM.

As for `CCCCNc1nc(N)nc2cn(Cc3ccc(N4CC5(CNC5)C4)cc3OC)nc12` [Compound 116], the EC50 was 0.988 µM on hTLR7 and 4.2 µM at hTLR8.

Take `CCCCNc1nc(N)nc2cn(Cc3ccon3)nc12` [Compound 117]: the results for the EC50 on hTLR7 and on hTLR8 were 0.751 µM and 2.2 µM, respectively.

For `CCCCNc1nc(N)nc2cn(Cc3ccc(CN4CC(CN)C4)cc3OC)nc12` [Compound 118], the half-maximal effective concentration (EC50) was determined as 0.249 µM at hTLR7 and 0.144 µM on hTLR8.

`CCCCNc1nc(N)nc2cn(Cc3ccc(CN4CCN(C(=O)CCN5C(=O)C=CC5=O)CC4)cc3)nc12` [Compound 119]: the EC50 is 6.65 µM on hTLR7 and 22.5 µM at hTLR8.

`C=CC(=O)NC[C@H]1CC[C@H](C(=O)N2CCN(c3ccc(Cn4cc5nc(N)nc(NCCCC)c5n4)c(OC)c3)CC2)CC1` [Compound 120]: the EC50 on hTLR7 is 0.112 µM; on hTLR8, 2.22 µM.

Regarding `CCCCNc1nc(N)nc2cn(Cc3ncoc3C)nc12` [Compound 121], the EC50 came to 0.49 µM on hTLR7 and 2.32 µM on hTLR8.

As to `CCCCNc1nc(N)nc2cn(Cc3ncccn3)nc12` [Compound 122], the EC50 at hTLR7 came to 0.288 µM; on hTLR8 it was 1.4 µM.

As to `CCCCNc1nc(N)nc2cn(Cc3ccc(N4CCNCC4)cn3)nc12` [Compound 123], the values for the 50% effective concentration (EC50) at hTLR7 and at hTLR8 were 0.743 µM and 0.88 µM, respectively.

With `CCCC(Nc1nc(N)nc2cn(Cc3c(OC)cccc3OC)nc12)C(F)(F)F` (stereo not shown) [Compound 124], the values for the 50% effective concentration (EC50) at hTLR7 and at hTLR8 were 0.266 µM and greater than 9.98 µM, respectively.

As to `CCCCNc1nc(N)nc2cn(Cc3ccc(N4CC5(CN(CCN6C(=O)C=CC6=O)C5)C4)cc3OC)nc12` [Compound 125], the 50% effective concentration (EC50) at hTLR7 is 1.74 µM; at hTLR8, 18.7 µM.

On to `CCCC(Nc1nc(N)nc2cn(Cc3c(OC)cccc3OC)nc12)C(F)(F)F` (stereo not shown) [Compound 126], for which the EC50 at hTLR7 was 0.707 µM; on hTLR8 it was greater than 9.98 µM.

For the compound `CCCCNc1nc(N)nc2cn(Cc3ccc(CN4CC(CN5C(=O)C=CC5=O)C4)cc3OC)nc12` [Compound 127], the figures for the EC50 at hTLR7 and at hTLR8 were 1.24 µM and 3.3 µM, respectively.

Turning to `CCCCNc1nc(N)nc2cn(Cc3ccc(CCO)cc3OC)nc12` [Compound 128], the EC50 at hTLR7 was 0.0952 µM; on hTLR8, 0.633 µM.

Consider `CCCCNc1nc(N)nc2cn(Cc3ncc(NCCCN)cc3OC)nc12` [Compound 129], for which the concentration for a half-maximal effect (EC50) is 0.293 µM on hTLR7 and 1.36 µM at hTLR8.

On to `CCC[C@@H](CO)Nc1nc(N)nc2cn(Cc3ccccc3OC)nc12` [Compound 130], for which the EC50 at hTLR7 worked out at 0.37 µM; on hTLR8 it was 0.734 µM.

In the case of `CCCCNc1nc(N)nc2cn(Cc3ccc(CN4CCNCC4)cc3OC)nc12` [Compound 131], the EC50 was determined as 0.68 µM at hTLR7 and 1.25 µM on hTLR8.

As to `CCCCNc1nc(N)nc2cn(Cc3cccc(N4CCNCC4)c3OC)nc12` [Compound 132], the concentration for a half-maximal effect (EC50) stood at 0.708 µM at hTLR7 and 1.49 µM on hTLR8.

As to `CCC[C@@H](CO)Nc1nc(N)nc2cn(Cc3ncccc3OC)nc12` [Compound 133], the figures for the EC50 at hTLR7 and at hTLR8 were 0.114 µM and 0.161 µM, respectively.

For `CCCCNc1nc(N)nc2cn(Cc3c(OC)cc(NCCN4C(=O)C=CC4=O)cc3OC)nc12` [Compound 134], the EC50 on hTLR7 came out at 1.52 µM; on hTLR8 it was 14.4 µM.

For `CCCC(Nc1nc(N)nc2cn(Cc3c(OC)cccc3OC)nc12)C(F)F` (stereo not shown) [Compound 135], the EC50 on hTLR7 was 0.343 µM; at hTLR8, greater than 9.98 µM.

Turning to `CCCC(Nc1nc(N)nc2cn(Cc3c(OC)cccc3OC)nc12)C(F)F` (stereo not shown) [Compound 136], the EC50 at hTLR7 stood at 0.174 µM; at hTLR8, 1.34 µM.

On to `CCCCNc1nc(N)nc2cn(Cc3ccc(CN)cc3OC)nc12` [Compound 137], for which the EC50 at hTLR7 turned out to be 0.439 µM; at hTLR8 it was 0.692 µM.

As for `CCCCNc1nc(N)nc2cn(Cc3ccc(C4CCNCC4)nc3OC)nc12` [Compound 138], the concentration for a half-maximal effect (EC50) amounted to 0.191 µM on hTLR7 and 1.78 µM on hTLR8.

As to `CCCCNc1nc(N)nc2cn(Cc3ccc(CCN)cc3OC)nc12` [Compound 139], the EC50 is 0.717 µM on hTLR7 and 0.942 µM on hTLR8.

`CCCCNc1nc(N)nc2cn(Cc3nocc3C)nc12` [Compound 140]: the EC50 came to 0.252 µM at hTLR7 and 1.72 µM at hTLR8.

Consider `CCCCNc1nc(N)nc2cn(Cc3c(OC)cc(CN(C)CCCN)cc3OC)nc12` [Compound 141], for which the figures for the EC50 on hTLR7 and on hTLR8 were 0.409 µM and 0.413 µM, respectively.

`CCCCNc1nc(N)nc2cn(Cc3ccc(CN)cn3)nc12` [Compound 142]: the EC50 at hTLR7 stood at 0.354 µM; at hTLR8, 3.22 µM.

For `CCCCNc1nc(N)nc2cn(Cc3cc(OC)c(CN(C)CCCN4C(=O)C=CC4=O)cc3OC)nc12` [Compound 143], the EC50 was 0.36 µM at hTLR7 and greater than 3.33 µM on hTLR8.

As to `CCCCNc1nc(N)nc2cn(Cc3ccc(NCCCN)cn3)nc12` [Compound 144], the concentration for a half-maximal effect (EC50) was 0.17 µM at hTLR7 and 3.81 µM on hTLR8.

As to `CCCCNc1nc(N)nc2cn(Cc3ccc(CN4CC(CNC)C4)cc3OC)nc12` [Compound 145], the EC50 on hTLR7 is 2.27 µM; at hTLR8 it was 6.32 µM.

Regarding `CCCCNc1nc(N)nc2cn(Cc3cc(CN)ccc3OC)nc12` [Compound 146], the concentration giving a half-maximal response (EC50) turned out to be 0.628 µM at hTLR7 and 0.637 µM at hTLR8.

With `CCCCNc1nc(N)nc2cn(Cc3ccc(CCNC)cc3OC)nc12` [Compound 147], the concentration giving a half-maximal response (EC50) at hTLR7 worked out at 0.18 µM; at hTLR8, 0.265 µM.

Consider `CCCCNc1nc(N)nc2cn(Cc3cc(CNC)ccc3OC)nc12` [Compound 148], for which the half-maximal effective concentration (EC50) came to 0.37 µM on hTLR7 and 0.59 µM on hTLR8.

With `CCC[C@@H](CO)Nc1nc(N)nc2cn(Cc3ccc(CN4CC(CN)C4)cc3OC)nc12` [Compound 149], the EC50 on hTLR7 came out at 5.18 µM; at hTLR8, 1.18 µM.
